Laboratory results from patent US7879862B2, “Pyrazolo[1,5-alpha]pyrimidinyl derivatives useful as corticotropin-releasing factor (CRF) receptor antagonists” (SmithKline Beecham (Cork) Limited, priority 2004, dated 2011).
Read-outs that look alike come from different tables or passages of the source.

Target: T1, human CRF receptors (Homo sapiens, UniProt P34998)
T1 construct: expressed in transfected cells
T1 sequence (P34998 24-415): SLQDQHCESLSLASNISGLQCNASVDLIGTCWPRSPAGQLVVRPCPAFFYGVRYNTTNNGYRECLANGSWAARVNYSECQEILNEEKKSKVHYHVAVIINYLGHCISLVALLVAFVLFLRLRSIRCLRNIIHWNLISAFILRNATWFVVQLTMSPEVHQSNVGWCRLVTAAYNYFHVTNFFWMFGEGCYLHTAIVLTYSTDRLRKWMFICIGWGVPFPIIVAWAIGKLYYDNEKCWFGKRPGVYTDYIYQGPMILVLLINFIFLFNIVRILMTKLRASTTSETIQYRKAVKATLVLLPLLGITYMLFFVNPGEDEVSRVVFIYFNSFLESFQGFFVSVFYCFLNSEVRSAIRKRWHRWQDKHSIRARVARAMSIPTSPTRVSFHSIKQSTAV
Assay: CRF receptor binding activity (radioligand displacement, Example 25)
From the text: The effectiveness of a compound as a CRF receptor antagonist may be determined by various assay methods. […] CRF receptor affinity may be determined by binding studies that measure the ability of a compound to inhibit the binding of a radiolabeled CRF (e.g., [^125I]tyrosine-CFR) to its receptor (e.g., receptors prepared from rat cerebral cortex membranes). The radioligand binding assay described by DeSouza et al. (supra, 1987) provides an assay for determining a compound's affinity for the CRF receptor.
[formula] where L=radioligand and KD=affinity of radioligand for receptor (Cheng and Prusoff, Biochem. Pharmacol. 22:3099, 1973).
By utilizing radiolabeled CRF ligands, the assay may be used to evaluate the binding activity of the compounds of the present invention with any CRF receptor subtype.
Briefly, the binding assay involves the displacement of a radiolabeled CRF ligand from the CRF receptor. More specifically, the binding assay is performed in 96-well assay plates using 1-10 μg cell membranes from cells stably transfected with human CRF receptors. […] The mixture is incubated for 2 hours at 22° C. followed by separation of the bound and free radioligand by rapid filtration over glass fiber filters. Following three washes, the filters are dried and radioactivity (Auger electrons from ^125I) is counted using a scintillation counter. All radioligand binding data may be analyzed using the non-linear least-squares curve-fitting programs Prism (GraphPad Software Inc) or XLfit (ID Business Solutions Ltd).

[1] = displacement of [125I] tyrosine-sauvagine from membranes of cells stably transfected with human CRF receptors, less than 0.10 μM (i.e., 100 nM), read-out: Ki (CRF receptor binding affinity)

Ki [1] [nM] | Ki [nM] | Structure (SMILES)
< 100 | – | CCC(Nc1cc(C)nc2c(-c3ccc(C)cc3Cl)c(C)nn12)c1nc(C)no1 (stereo not shown) [Example 24-6, [3-(2-Chloro-4-methyl-phenyl)-2,5-dimethyl-pyrazolo[1,5-a]pyrimidin-7-yl]-[1-(3-methyl-[1,2,4]oxadiazol-5-yl)-propyl]-amine]
< 100 | – | COc1ccc(-c2c(C)nn3c(N[C@H](C)Cc4nc(C(F)(F)F)no4)cc(C)nc23)c(OC)c1 [Example 13-7, [3-(2,4-Dimethoxy-phenyl)-2,5-dimethyl-pyrazolo[1,5-a]pyrimidin-7-yl]-[(R)-1-methyl-2-(3-trifluoromethyl-[1,2,4]oxadiazol-5-yl)-ethyl]-amine]
< 100 | – | COc1ccc(-c2c(C)nn3c(N[C@@H](Cc4nc(C(F)(F)F)no4)C(F)(F)F)cc(C)nc23)c(OC)c1 [Example 13-9, [3-(2,4-Dimethoxy-phenyl)-2,5-dimethyl-pyrazolo[1,5-a]pyrimidin-7-yl]-[2,2,2-trifluoro-(S)-1-(3-trifluoromethyl-[1,2,4]oxadiazol-5-ylmethyl)-ethyl]-amine]
< 100 | – | CCC(Nc1cc(C)nc2c(-c3ccc(OC)cc3C)c(C)nn12)c1nc(C2CC2)no1 (stereo not shown) [Example 11-1, [1-(3-Cyclopropyl-[1,2,4]oxadiazol-5-yl)-propyl]-[3-(4-methoxy-2-methyl-phenyl)-2,5-dimethyl-pyrazolo[1,5-a]pyrimidin-7-yl]-amine]
< 100 | – | CCC(Cc1nc(C2CC2)no1)Nc1cc(C)nc2c(-c3ccc(OC)cc3OC)c(C)nn12 (stereo not shown) [Example 12-10, [1-(3-Cyclopropyl-[1,2,4]oxadiazol-5-ylmethyl)-propyl]-[3-(2,4-dimethoxy-phenyl)-2,5-dimethyl-pyrazolo[1,5-a]pyrimidin-7-yl]-amine]
< 100 | – | COc1ccc(-c2c(C)nn3c(N[C@@H](Cc4nc(C)no4)C(F)(F)F)cc(C)nc23)c(C)c1 [Example 13-2, [3-(4-Methoxy-2-methyl-phenyl)-2,5-dimethyl-pyrazolo[1,5-a]pyrimidin-7-yl]-[2,2,2-trifluoro-(S)-1-(3-methyl-[1,2,4]oxadiazol-5-ylmethyl)-ethyl]-amine]
< 100 | – | COc1ccc(-c2c(C)nn3c(N[C@H](C)Cc4noc(C(F)(F)F)n4)cc(C)nc23)c(C)c1 [Example 18-2, [3-(4-Methoxy-2-methyl-phenyl)-2,5-dimethyl-pyrazolo[1,5-a]pyrimidin-7-yl]-[(R)-1-methyl-2-(5-trifluoromethyl-[1,2,4]oxadiazol-3-yl)-ethyl]-amine]
< 100 | – | COc1ccc(-c2c(C)nn3c(N4CCC[C@H]4Cc4nc(C)no4)cc(C)nc23)c(C)c1 [Example 14-3, 3-(4-Methoxy-2-methyl-phenyl)-2,5-dimethyl-7-[(S)-2-(3-methyl-[1,2,4]oxadiazol-5-ylmethyl)-pyrrolidin-1-yl]-pyrazolo[1,5-a]pyrimidine]
< 100 | – | CCC(Nc1cc(C)nc2c(-c3ccc(OC)cc3C)c(C)nn12)c1nc(C(C)C)no1 (stereo not shown) [Example 11-4, [1-(3-Isopropyl-[1,2,4]oxadiazol-5-yl)-propyl]-[3-(4-methoxy-2-methyl-phenyl)-2,5-dimethyl-pyrazolo[1,5-a]pyrimidin-7-yl]-amine]
< 100 | – | CCc1noc(C[C@@H](C)Nc2cc(C)nc3c(-c4ccc(OC)cc4C)c(C)nn23)n1 [Example 11-17, [2-(3-Ethyl-[1,2,4]oxadiazol-5-yl)-(R)-1-methyl-ethyl]-[3-(4-methoxy-2-methyl-phenyl)-2,5-dimethyl-pyrazolo[1,5-a]pyrimidin-7-yl]-amine]
< 100 | – | CCC(Nc1cc(C)nc2c(-c3ccc(Cl)cc3C)c(C)nn12)c1nc(C)no1 (stereo not shown) [Example 24-4, [3-(4-Chloro-2-methyl-phenyl)-2,5-dimethyl-pyrazolo[1,5-a]pyrimidin-7-yl]-[1-(3-methyl-[1,2,4]oxadiazol-5-yl)-propyl]-amine]
< 100 | – | CCC(Nc1cc(C)nc2c(-c3ccc(OC)cc3C)c(C)nn12)c1nc(C(F)(F)F)no1 (stereo not shown) [Example 11-11, [3-(4-Methoxy-2-methyl-phenyl)-2,5-dimethyl-pyrazolo[1,5-a]pyrimidin-7-yl]-[1-(3-trifluoromethyl-[1,2,4]oxadiazol-5-yl)-propyl]-amine]
< 100 | – | COc1ccc(-c2c(C)nn3c(NC(C)Cc4nnc(C(F)(F)F)o4)cc(C)nc23)c(C)c1 (stereo not shown) [Example 23-2, [3-(4-Methoxy-2-methyl-phenyl)-2,5-dimethyl-pyrazolo[1,5-a]pyrimidin-7-yl]-[1-methyl-2-(5-trifluoromethyl-[1,3,4]oxadiazol-2-yl)-ethyl]-amine]
< 100 | – | COc1ccc(-c2c(C)nn3c(N[C@H](C)Cc4nc(C(F)(F)F)no4)cc(C)nc23)c(Cl)c1 [Example 13-6, [3-(2-Chloro-4-methoxy-phenyl)-2,5-dimethyl-pyrazolo[1,5-a]pyrimidin-7-yl]-[(R)-1-methyl-2-(3-trifluoromethyl-[1,2,4]oxadiazol-5-yl)-ethyl]-amine]
– | < 100 | CCC(Nc1cc(C)nc2c(-c3ccc(OC)cc3OC)c(C)nn12)c1nc(C)no1 (stereo not shown) [Example 11-20, [3-(2,4-Dimethoxy-phenyl)-2,5-dimethyl-pyrazolo[1,5-a]pyrimidin-7-yl]-[1-(3-methyl-[1,2,4]oxadiazol-5-yl)-propyl]-amine]
< 100 | – | CCCC(Nc1cc(C)nc2c(-c3ccc(OC)cc3C)c(C)nn12)c1nc(C)no1 (stereo not shown) [Example 11-5, [3-(4-Methoxy-2-methyl-phenyl)-2,5-dimethyl-pyrazolo[1,5-a]pyrimidin-7-yl]-[1-(3-methyl-[1,2,4]oxadiazol-5-yl)-butyl]-amine]
< 100 | – | COc1ccc(-c2c(C)nn3c(NC(C)Cc4nc(C(C)C)no4)cc(C)nc23)c(C)c1 (stereo not shown) [Example 12-5, [2-(3-Isopropyl-[1,2,4]oxadiazol-5-yl)-1-methyl-ethyl]-[3-(4-methoxy-2-methyl-phenyl)-2,5-dimethyl-pyrazolo[1,5-a]pyrimidin-7-yl]-amine]
< 100 | – | COc1ccc(-c2c(C)nn3c(N(Cc4ccccc4)Cc4nc(C)no4)cc(C)nc23)c(C)c1 [Example 12-2, Benzyl-[3-(4-methoxy-2-methyl-phenyl)-2,5-dimethyl-pyrazolo[1,5-a]pyrimidin-7-yl]-(3-methyl-[1,2,4]oxadiazol-5-ylmethyl)-amine]
< 100 | – | CCC(Cc1nc(C)no1)Nc1cc(C)nc2c(-c3ccc(OC)cc3C)c(C)nn12 (stereo not shown) [Example 12-9, [3-(4-Methoxy-2-methyl-phenyl)-2,5-dimethyl-pyrazolo[1,5-a]pyrimidin-7-yl]-[1-(3-methyl-[1,2,4]oxadiazol-5-ylmethyl)-propyl]-amine]
< 100 | – | COc1ccc(-c2c(C)nn3c(N4CCCCC4Cc4nc(C)no4)cc(C)nc23)c(C)c1 (stereo not shown) [Example 20-2, 3-(4-Methoxy-2-methyl-phenyl)-2,5-dimethyl-7-[2-(3-methyl-[1,2,4]oxadiazol-5-ylmethyl)-piperidin-1-yl]-pyrazolo[1,5-a]pyrimidine]
< 100 | – | Cc1cc(N[C@H](CC(C)C)c2nc(C)no2)n2nc(C)c(-c3cnc(N(C)C)cc3C)c2n1 [Example 11-18, [3-(6-Dimethylamino-4-methyl-pyridin-3-yl)-2,5-dimethyl-pyrazolo[1,5-a]pyrimidin-7-yl]-[3-methyl-(R)-1-(3-methyl-[1,2,4]oxadiazol-5-yl)-butyl]-amine]
– | < 100 | COc1ccc(-c2c(C)nn3c(NC(C)Cc4nc(C)no4)cc(C)nc23)c(C)c1 (stereo not shown) [Example 12-1, [3-(4-Methoxy-2-methyl-phenyl)-2,5-dimethyl-pyrazolo[1,5-a]pyrimidin-7-yl]-[1-methyl-2-(3-methyl-[1,2,4]oxadiazol-5-yl)-ethyl]-amine]
< 100 | – | COc1ccc(-c2c(C)nn3c(NC(CC(C)C)c4nc(C)no4)cc(C)nc23)c(OC)c1 (stereo not shown) [Example 11-23, [3-(2,4-Dimethoxy-phenyl)-2,5-dimethyl-pyrazolo[1,5-a]pyrimidin-7-yl]-[3-methyl-1-(3-methyl-[1,2,4]oxadiazol-5-yl)-butyl]-amine]
– | < 100 | COc1ccc(-c2c(C)nn3c(N[C@H](C)Cc4nc(C)no4)cc(C)nc23)c(C)c1 [Example 11-10, [3-(4-Methoxy-2-methyl-phenyl)-2,5-dimethyl-pyrazolo[1,5-a]pyrimidin-7-yl]-[(R)-1-methyl-2-(3-methyl-[1,2,4]oxadiazol-5-yl)-ethyl]-amine]
< 100 | – | COc1ccc(-c2c(C)nn3c(NC(Cc4nc(C)no4)C(F)(F)F)cc(C)nc23)c(C)c1 (stereo not shown) [Example 12-3, [3-(4-Methoxy-2-methyl-phenyl)-2,5-dimethyl-pyrazolo[1,5-a]pyrimidin-7-yl]-[2,2,2-trifluoro-1-(3-methyl-[1,2,4]oxadiazol-5-ylmethyl)-ethyl]-amine]
